We go through 67 compounds from ChEMBL document CHEMBL5050850, “Compositions and methods of using the same for treatment of neurodegenerative and mitochondrial disease” (2020).

The test system of data set [1] is HeLa. Nature of the data set: Cytotoxicity against human HeLa MKYP cells assessed as percentage of DAPI-positive cells at 50 uM and measured by DAPI staining method. Format: toxicity, cell-based.
Data set [2] can be described thus: Induction of mitophagy in human HeLa MKYP cells treated with FCCP/oligomycin for 6 hrs and measured by FACS analysis. Format: functional, cell-based.
Data set [3] has as its system HeLa. The data set is described as follows: Cytotoxicity against human HeLa MKYP cells assessed as cell death at 25 uM and measured DAPI staining method assay relative to control. Format: toxicity, cell-based.
The subject of data set [4] is HeLa. Nature of the data set: Cytotoxicity against human HeLa MKYP cells assessed as cell death at 25 uM treated with FCCP/oliogmycin and measured DAPI staining method assay relative to control. Format: toxicity, cell-based.

On to `FC(F)(F)c1cc2c(NC3CCCc4ccccc43)ncnc2[nH]1` (racemic), for which, in data set [1], the Activity was found to be 27.1%. The EC50 in data set [2] is above 50 µM.
For the compound `O[C@H]1Cc2ccccc2[C@H]1Nc1ncnc2[nH]c(C(F)(F)F)cc12`, the results for the Activity in data set [3], in data set [1] and in data set [4] were 2.75%, 21.2% and 21.2%, respectively. In data set [2], this compound gave an EC50 above 50 µM.
As to `FC(F)(F)c1cc2c(NC3CCCc4ncncc43)ncnc2[nH]1` (stereo not drawn), in data set [1], the Activity was 12%. This compound also registered an EC50 in data set [2] above 50 µM.
As to `CO[C@@H]1COc2ccccc2[C@H]1Nc1ncnc2[nH]c(C(F)(F)F)cc12`, the figures for the Activity in data set [3], in data set [1] and in data set [4] were 2.61%, 10.6% and 10.645%, respectively. This compound showed an EC50 in data set [2] of 6.3 µM.
On to `C[C@H](Nc1ncnc2[nH]c(C3CC3)nc12)c1ccccc1`, for which, in data set [1], the Activity was 27.6%. Further, in data set [2], the half-maximal effective concentration (EC50) amounted to 3.17 µM.
For `c1ccc2c(c1)OCC[C@H]2Nc1ncnc2[nH]cnc12`, in that order: 16% and above 50 µM.
For `c1ccc2c(c1)OCC[C@@H]2Nc1ncnc2[nH]cnc12`, in that order: 17% and 1.69 µM.
For `c1ncc(CNc2ncnc3[nH]c(C4CC4)nc23)cn1`, in that order: 7.1% and above 50 µM.
On to `c1ccc2c(c1)OCC[C@H]2Nc1ncnc2[nH]c(C3CC3)cc12`, for which the Activity in data set [3] came out at 7.26%; in data set [1], 17.3%; in data set [4], 17.3%. In addition, in data set [2], the EC50 was 1.98 µM.
For the compound `CCCCNc1ncnc2[nH]c(C3CC3)nc12`, the Activity in data set [1] is recorded as 16.2%. In data set [2], this compound came in with an EC50 of 18.8 µM.
Consider `CC(Nc1ncnc2[nH]cnc12)c1ccccc1` (stereo not drawn), for which the Activity in data set [1] is reported as 18.2%. Besides, in data set [2], a half-maximal response (EC50) required 2.69 µM.
The matching figures for `c1coc(CNc2ncnc3[nH]c(C4CCC4)nc23)c1`: 3% and above 50 µM.
Take `Fc1cccc(CNc2ncnc3[nH]c(C(F)(F)F)cc23)c1Cl`: the Activity in data set [1] was 4.5%.
Regarding `COc1ccc2c(c1)[C@@H](Nc1ncnc3[nH]c(C(F)(F)F)cc13)CCC2`, the Activity in data set [3] was found to be 1.18%; in data set [1] it was 3.2%; in data set [4] it was 3.18%. The EC50 in data set [2] is 4 µM.
As for `COc1ncccc1CNc1ncnc2[nH]c(C(F)(F)F)cc12`, the Activity in data set [1] was 7.6%.
With `C[C@H](Nc1ncnc2[nH]c(C(F)(F)F)cc12)c1ccccc1`, in data set [1], the Activity is 90.8%. In data set [2], this compound displayed an EC50 of 0.02 µM.
Turning to `c1coc(CNc2ncnc3[nH]cnc23)c1` [KINETIN], in data set [1], the Activity is given as 4.9%.
Still for that read-out and setting: then `FC(F)(F)c1cc2c(NCc3cccc(Cl)c3)ncnc2[nH]1`, with 20.3%.
Regarding `COc1ccccc1CNc1ncnc2nc[nH]c12`, in data set [1], the Activity is on record as 12.4%. The same compound registered an EC50 in data set [2] of 10.8 µM.
The matching figures for `COc1cc(CNc2ncnc3[nH]c(C4CC4)nc23)ccn1`: 7.1% and above 50 µM.
For `CCCCNc1ncnc2[nH]c(C3CCC3)nc12`, in that order: 6.1% and above 50 µM.
The matching figures for `CCCCNc1ncnc2[nH]c(C(F)(F)F)c(C)c12`: 11.9% and above 50 µM.
As for `CC(=O)N1CCC(Nc2ncnc3[nH]c(C(F)(F)F)cc23)c2ccccc21` (stereo not drawn), the Activity was 2.69% in data set [3], 6.9% in data set [1] and 6.92% in data set [4]. In data set [2], this compound showed a concentration giving a half-maximal response (EC50) of 17.3 µM.
As to `CCCCNc1ncnc2c1cc(C(F)(F)F)n2C(C)=O`, the Activity in data set [1] is on record as 36.6%. In data set [2], this compound registered an EC50 above 50 µM.
For `FC(F)(F)c1cc2c(NC3CCN(Cc4ccccc4)CC3)ncnc2[nH]1`, in that order: 43.9% and 21.4 µM.
For `OC[C@H](Nc1ncnc2[nH]cnc12)c1ccccc1`, in that order: 14.5% and 3.48 µM.
On to `Oc1ccc2c(c1)CCC[C@H]2Nc1ncnc2[nH]c(C(F)(F)F)cc12`, for which the Activity in data set [3] worked out at 3.32%; in data set [1] it was 11%; in data set [4], 11%. The compound further yielded a 50% effective concentration (EC50) in data set [2] of 4.38 µM.
As for `C[C@@H](Nc1ncnc2[nH]c(C3CC3)nc12)c1ccccc1`, the Activity in data set [1] is 12.3%. The EC50 in data set [2] is above 50 µM.
For `FC(F)(F)c1cc2c(NC3COCc4ccccc43)ncnc2[nH]1` (stereo not drawn), in that order: 42.9% and above 50 µM.
For `FC(F)(F)c1cc2c(N[C@H]3COc4ccccc43)ncnc2[nH]1`, in that order: 22.8% and 1.4 µM.
Take `C[C@@H](Nc1ncnc2[nH]c(C(F)(F)F)cc12)c1ccccc1`: the Activity in data set [1] is on record as 63.7%. The EC50 in data set [2] came to 3.1 µM.
For the compound `OC[C@@H](Nc1ncnc2[nH]c(C(F)(F)F)cc12)c1ccccc1`, in data set [1], the Activity was 30.3%. Further, the EC50 in data set [2] amounted to 4.4 µM.
In the case of `FC(F)(F)c1cc2c(N[C@H]3CCOc4ccccc43)ncnc2[nH]1`, the Activity in data set [1] was 37.7%. The same compound gave an EC50 in data set [2] of 5.6 µM.
In the case of `CN(C)[C@H]1CCc2ccccc2[C@@H]1Nc1ncnc2[nH]c(C(F)(F)F)cc12`, the Activity in data set [3] is 4.33%; in data set [1] it was 79.3%; in data set [4], 79.29%. In data set [2], this compound had an EC50 of 0.81 µM.
`OC[C@@H](Nc1ncnc2[nH]cnc12)c1ccccc1`: in data set [1], the Activity is 8.9%. Besides, in data set [2], the EC50 was above 50 µM.
The matching figures for `C[C@@H](Nc1ncnc2[nH]c(C(F)(F)F)cc12)c1cncnc1`: 22.9% and 21.6 µM.
For `FC(F)(F)c1cc2c(NCc3cncnc3)ncnc2[nH]1`, in that order: 1.7% and 11.7 µM.
For `CC(CNc1ncnc2[nH]cnc12)c1ccccc1` (stereo not drawn), in that order: 28.9% and 3.6 µM.
With `c1ccc2c(c1)CC[C@H]2Nc1ncnc2[nH]cnc12`, the Activity in data set [1] stood at 10.3%. The EC50 in data set [2] is above 50 µM.
The matching figures for `OC[C@H](Nc1ncnc2[nH]c(C(F)(F)F)cc12)c1ccccc1`: 30.4% and 14.7 µM.
The matching figures for `COc1ncc(CNc2ncnc3[nH]c(C(F)(F)F)cc23)cn1`: 5.8% and 10.6 µM.
For `COc1ccccc1CNc1ncnc2[nH]c(C(F)(F)F)cc12`, in that order: 24.7% and 2 µM.
On to `C[C@H](Nc1ncnc2[nH]c(C(F)(F)F)cc12)c1cncnc1`, for which the Activity in data set [1] turned out to be 23.7%. Besides, the EC50 in data set [2] worked out at 3.1 µM.
As for `FC(F)(F)c1cc2c(NCc3ccncn3)ncnc2[nH]1`, the Activity in data set [1] worked out at 1.5%.
For `C[C@@H](Nc1nccc2[nH]cnc12)c1ccccc1`, the Activity in data set [1] came to 7.6%. In data set [2], this compound registered an EC50 above 50 µM.
For `C[C@H](Nc1ncnc2[nH]cnc12)c1ccccc1`, in that order: 11.7% and 2 µM.
On to `O=S1(=O)Cc2ccccc2C(Nc2ncnc3[nH]c(C(F)(F)F)cc23)C1` (stereo not drawn), for which, in data set [1], the Activity is 13.2%. Besides, the EC50 in data set [2] was above 50 µM.
As to `c1ccc2c(c1)OCC2Nc1ncnc2[nH]cnc12` (stereo not drawn), in data set [1], the Activity was determined as 21%. The response in data set [2] was half-maximal at 6.1 µM (EC50).
Take `CO[C@H]1COc2ccccc2[C@H]1Nc1ncnc2[nH]c(C(F)(F)F)cc12`: the Activity was found to be 2.49% in data set [3], 3.6% in data set [1] and 3.555% in data set [4]. In data set [2], this compound showed an EC50 of 13.3 µM.
In the case of `COc1ccc(CNc2ncnc3[nH]c(C(F)(F)F)cc23)c(OC)c1`, in data set [1], the Activity stood at 42.6%. Further, a half-maximal response in data set [2] (EC50) required 2.08 µM.
For `CCC(Nc1ncnc2[nH]c(C(F)(F)F)cc12)c1cncnc1` (stereo not drawn), in that order: 15.9% and 18.8 µM.
For `CC(Nc1ncnc2[nH]c(C3CC3)nc12)c1ccccc1` (stereo not drawn), in that order: 18.3% and 6.3 µM.
The matching figures for `CN1CCC(Nc2ncnc3[nH]c(C(F)(F)F)cc23)c2ccccc21` (stereo not drawn): 28.1% and 1.81 µM.
Turning to `CN(C)C1CCC(CNc2ncnc3[nH]c(C(F)(F)F)cc23)CC1` (stereo not drawn), in data set [1], the Activity came to 5.2%. The same compound had an EC50 in data set [2] above 50 µM.
The matching figures for `CC(C)[C@@H](Nc1ncnc2[nH]c(C(F)(F)F)cc12)c1cncnc1`: 6.8% and 6.9 µM.
For `C[C@@H](Nc1ncnc2[nH]cnc12)c1ccccc1`, in that order: 10.1% and 47.4 µM.
Consider `FC(F)(F)c1cc2c(NCc3cnccn3)ncnc2[nH]1`, for which the Activity in data set [1] is on record as 0.9%.
On to `FC(F)(F)c1cc2c(NC3CCOc4ccccc43)ncnc2[nH]1` (stereo not drawn), for which, in data set [1], the Activity worked out at 22.3%. In data set [2], this compound gave a concentration for a half-maximal effect (EC50) of 3.24 µM.
For `Cc1nc2c(N[C@@H](C)c3ccccc3)ncnc2[nH]1`, in that order: 31.9% and 4.6 µM.
Regarding `c1ccc(C2(Nc3ncnc4[nH]cnc34)CC2)cc1`, in data set [1], the Activity is given as 13.4%. Besides, the EC50 in data set [2] was above 50 µM.
`Clc1cccc(CNc2ncnc3nc[nH]c23)c1`: the Activity in data set [1] turned out to be 12.5%. Besides, the response in data set [2] was half-maximal at 16 µM (EC50).
Regarding `c1ncc(CNc2ncnc3[nH]cnc23)cn1`, in data set [1], the Activity is given as 5.3%. Also, in data set [2], the EC50 turned out to be 4.4 µM.
For `c1ccc(CCNc2ncnc3[nH]cnc23)cc1`, in that order: 19.7% and 2.26 µM.
For `c1ccc2c(c1)CC[C@@H]2Nc1ncnc2[nH]cnc12`, in that order: 16.2% and 4.38 µM.
In the case of `Fc1cc(Cl)cc(CNc2ncnc3[nH]c(C(F)(F)F)cc23)c1`, in data set [1], the Activity came to 4.8%.
Take `Cc1nc2c(N[C@H](C)c3ccccc3)ncnc2[nH]1`: in data set [1], the Activity was found to be 9.7%. This compound also displayed an EC50 in data set [2] above 50 µM.
The matching figures for `FC(F)(F)c1cc2c(N[C@@H]3COc4ccccc43)ncnc2[nH]1`: 29.2% and 14.9 µM.
